Reference: patent publication US9951389B2, “Diagnostic markers for treating cell proliferative disorders with telomerase inhibitors” (Geron Corporation, priority 2012, dated 2018)
Like-named read-outs stand apart in the source and are kept apart here. [nps] = N3'→P5' thiophosphoramidate linkage

Columns and labels:
[1] = test system: animal tumor models, including ovarian and lung, both small cell and non-small cell; conditions: cited from earlier work
[2] = test system: epidermoid carcinoma, breast epithelium, renal carcinoma, renal adenocarcinoma, pancreatic, brain, colon, prostate, leukemia, lymphoma, myeloma, epidermal …; conditions: administered alone, in vitro; cited from earlier work
[3] = test system: advanced stage non-small cell lung cancer; experiment: Imetelstat NSC Lung Cancer Phase II (CP14B-012) Study, progression-free survival analysis by tumor telomere length subgroup; type: in vivo, human; conditions: for responsiveness (progression-free survival) of patients with short telomeres vs medium-long telomeres: telomere length subgroups by qPCR
Description: The purpose of the NSC Phase II (CP14B-012) Study was to evaluate the efficacy and safety of imetelstat (GRN163L) as maintenance therapy for patients with advanced stage non-small cell lung cancer who have not progressed after 4 cycles of platinum based therapy. Participants were randomized in a 2:1 ratio to imetelstat plus standard of care versus standard of care alone. Participants who received bevacizumab with their induction chemotherapy continued to receive bevacizumab in this study.
The primary outcome measures were progression-free survival, defined as the time from randomization to documented disease progression or death, whichever occurred earlier, as determined by the investigator's assessment according to RECIST (Response Evaluation Criteria in Solid Tumors). The secondary outcome measures were objective response, time to all-cause mortality, and safety and tolerability (assessed by the incidence, nature, and severity of adverse events, laboratory abnormalities, and vital signs.
The patients were divided into two arms. In the experimental arm, patients received Imetelstat plus the standard of care (Bevacizumab or observation). Specifically, 9.4 mg/kg of Imetelstat (GRN163L) was given to patients over a 2 hour IV infusion on Day 1 and Day 8 of each 21 day cycle until disease progression. If administered, Bevacizumab was given on Day 1 of each 21-day cycle, with dosage and duration according to the FDA-approved Bevacizumab package insert.
In the control arm, patients received Bevacizumab or observation. If administered, Bevacizumab was given on Day 1 of each 21-day cycle, with dosage and duration according to the FDA-approved Bevacizumab package insert.
Samples were obtained from 61 of the 116 patients enrolled in the NSC Phase II (CP14B-012) Study described above. […] Each assay produced data for between 7 and 14545 foci from six regions (‘fields’) on a slide. The area and fluorescent intensity were recorded for each of the foci.
The IN Cell developer Toolbox 1.9 (GE Corp.) was utilized to quantitate the average telomere length from cells obtained from biological samples and subjected to telo-FISH. This software was used to draw lines around cell nuclei based on the location of the DAPI stain, and around cell telomeres based on the location of the telomere-specific fluorescence. Once each nucleus and telomere was encircled, the software calculated the intensity and the area of each individual telomere in the cells and determined the average telomere length for the cells derived from the biological sample according to Equation 1: 1.376×log2(intensity)−6.215×√(area) [Equation 1]. Results
This Example followed all of the procedures of Example 2 with the following changes to the qPCR protocol.

Row | Substance | therapeutic efficacy in animal tumor models [1] | inhibitory activity in cell culture [2] | progression-free survival hazard ratio (95% CI) [3] | progression-free survival hazard ratio (95% CI) ([3]; Telo-FISH quartile split, small intensity/area (15/59, 25.4%), Example 3, Imetelstat vs control) | progression-free survival median (95% CI) ([3]; Telo-FISH quartile split, small intensity/area (15/59, 25.4%, shortest telomeres), Example 3, Imetelstat arm) | progression-free survival median (95% CI) ([3]; medium-long telomere subgroup (34 of 52 samples, 65%), second qPCR protocol of Example 4, Imetelstat arm) | progression-free survival median (95% CI) ([3]; medium-long telomere subgroup (38 of 57 samples, 67%), qPCR of Example 2, Imetelstat arm) | progression-free survival hazard ratio (95% CI) ([3]; medium-long telomere subgroup (65%), second qPCR protocol of Example 4, Imetelstat vs control) | progression-free survival events/N ([3]; medium-long telomere subgroup (67%), qPCR of Example 2, Imetelstat arm) | progression-free survival median (95% CI) ([3]; short telomere subgroup (18 of 52 samples, 35%), second qPCR protocol of Example 4, Imetelstat arm) | progression-free survival median (95% CI) ([3]; short telomere subgroup (19 of 57 samples, 33%), qPCR of Example 2, Imetelstat 9.4 mg/kg IV Day 1 and 8 of 21 day cycle plus standard of care) | progression-free survival events/N ([3]; short telomere subgroup (33%), qPCR of Example 2, Imetelstat arm) | progression-free survival hazard ratio (95% CI) ([3]; short telomere subgroup (33%), qPCR of Example 2, Imetelstat vs control arm) | progression-free survival hazard ratio (95% CI) ([3]; short telomere subgroup (35%), second qPCR protocol of Example 4, Imetelstat vs control) | responsiveness (progression-free survival) of patients with short telomeres vs medium-long telomeres ([3]; Example 2) | responsiveness (progression-free survival) of patients with short telomeres vs medium-long telomeres ([3]; Example 4)
1 | GRN163: oligonucleotide having sequence TAGGGTTAGACAA (SEQ ID NO:3) and N3′→P5′ thiophosphoramidate (NPS) linkages (all [nps], sugars by position and methylation of C not given here) | therapeutically effective | has shown inhibitory activity | – | – | – | – | – | – | – | – | – | – | – | – | – | –
2 | Imetelstat | – | – | 0.83 (0.36, 1.89) | 0.26 (0.06, 1.1) | 4.7 (1.41, NA) | 3.03 (1.58, 4.47) | 2.8 (1.51, 4.18) | 0.65 (0.27, 1.56) | 21/26 | 1.91 (1.22, NA) | 4.05 (1.25, NA) | 8/11 | 0.32 (0.1, 1.02) | 0.55 (0.17, 1.84) | significantly more responsive compared to controls | significantly more responsive compared to controls
